Values joined by “and” are separate entries in the source; they are usually repeats but may differ in a detail not shown here. Equal values may be shown once.
Tested on: 485368-065-R3-J5-PDC spheroids with HUVEC/MSC, viability
Assay: Anticancer human tumor 485368-065-R3-J5-PDC patient-derived pancreatic carcinoma cell line growth inhibition [RAS]
Details: for viability, T/C: stronger effect = lower value
Text: RAS pathway inhibitors in Combinations in Complex Spheroids
A high-throughput screen of multi-cell type tumor spheroids was designed to identify active combinations of RAS pathway inhibitors and targeted small molecules. Complex spheroids include a stromal component modeled by human endothelial cells (HUVEC) and fibroblasts modeled by human mesenchymal stem cells (MSCs). The concentration ranges selected for each drug and investigational agent were based upon clinically achievable concentrations if the clinical Cmax of the agent was known.
Compounds. The drugs and investigational agents: abemaciclib (NSC768073), cobimetinib (NSC768068), divarasib (GDC6063, NSC841802), docetaxel (NSC628503), GDC-1971 (RLY-1971, NSC841576), gemcitabine (NSC613327), inavolisib (NSC800729), ipatasertib (NSC767898), KB-0742 (NSC834161), MRTX-1133 (NSC836407), osimertinib (NSC779217), RMC-4630 (NSC839698), RMC-6236 (NSC851965), RMC-6291 (NSC852671), Ro-3306 (NSC812927), sapanisertib (NSC764658), SN-38 (NSC673596), staurosporine (NSC755774), SY5609 (NSC837396), and tovorafenib (DAY101, NSC766906), were obtained from the National Cancer Institute (NCI) Developmental Therapeutics Program Chemical Repository. The FDA-approved anticancer drug set is available from the NCI Developmental Therapeutics Program. […] The stock solutions were prepared in dimethyl sulfoxide (DMSO, Sigma-Aldrich, St. Louis, MO, cat. D2650) at 800-fold the tested concentration and stored at -70 degrees C prior to their use. All drugs and investigational agents were tested over a range starting from a high concentration at or near the clinical Cmax and decreasing in half-log increments. If the clinical Cmax for an agent had not been determined, the highest concentration tested was 10 microM.
Cell Culture. All cells were maintained in an incubator at 37 degrees C and 5% CO2 with 95% humidity. The PDC lines were cultured according to standard operating procedures established by the NCI PDMR. All PDCs were thawed and cultured in Matrigel-coated flasks prepared with a working solution of 1X Ham's F-12 nutrient mix, without supplementation (Invitrogen, Waltham, MA, cat. 11765054), 100 U/mL penicillin-streptomycin (Invitrogen, cat. 15140122), and 2.5% Matrigel (Corning Inc., Corning, NY, cat. 354248) for the first three passages. The 362531-283-R-J2-PDC and 782815-120-R-J1-PDC lines were cultured in 6C/Colon 1B media, which includes advanced DMEM/F-12 (Thermo Fisher Scientific, cat. 12634028), 10 mM HEPES (Thermo Fisher Scientific, cat. 15630080), 1X GlutaMAX supplement (Thermo Fisher Scientific, cat. 35050061), 0.1 mg/mL primocin (InvivoGen, San Diego, CA, cat. ant-pm-2), 10% defined fetal bovine serum, heat inactivated (HyClone Laboratories Inc., Logan, UT, cat. SH30070.03HI), 50% L-WRN conditioned media (ATCC, cat. CRL-3276), 1.25 mM N-Acetyl-L-cysteine (Sigma-Aldrich, cat. A9165), 10 mM nicotinamide (Sigma-Aldrich, cat. N0636), 1X B-27 supplement (Thermo Fisher Scientific, cat. 17504044), 1X N-2 supplement (Thermo Fisher Scientific, cat. 17502048), 50 ng/mL human EGF (Thermo Fisher Scientific, cat. PHG0311), and 10 microM Y-27632 dihydrochloride (Tocris Bioscience, cat. 1254). The K12877-001-R-J1-PDC line was cultured in 6I media, which includes all 6C/Colon 1B media plus 10 ng/mL human FGF-10 (PeproTech, cat. 100-26), 1 ng/mL human FGF-2 (PeproTech, cat. 100-18B), 1 µM prostaglandin E2 (Tocris Bioscience, cat. 2296), […] hydrocortisone (Sigma-Aldrich, cat. H4001), and […] bovine insulin (Sigma-Aldrich, cat. I6634). The K86415-001-R-J1-PDC line was cultured in 6D media, which includes all 6C/Colon 1B media components minus the L-WRN conditioned media. The 485176-168-R4-J1-PDC was cultured in PANC media, which includes all 6C/Colon 1B media plus 100 ng/mL human FGF-10 (PeproTech, cat. 100-26), 500 nM SB-431542 (Selleckchem, cat. S1067), and 10 nM gastrin (Tocris Bioscience, cat. 3006). […]

[1] = compound alone, run of 07/09/2024
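Note: spheroids exposed to agents for seven days before readout.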

| Structure (SMILES) | viability, T/C (compound 0.0316 µM) | viability, T/C (compound 0.1 µM) | viability, T/C (compound 0.316 µM) | viability, T/C (compound 1 µM) | viability, T/C (compound 3.16 µM) | viability, T/C (compound 10 µM) | IC50 (curve of compound) | viability, T/C (compound 0.03 µM) | viability, T/C (compound 0.0949 µM) | viability, T/C (compound 0.3 µM) | viability, T/C (compound 0.00316 µM) | viability, T/C (compound 0.01 µM) | viability, T/C (compound 0.000949 µM) | viability, T/C (compound 0.003 µM) | viability, T/C (compound 0.00949 µM) | IC50 [1] [nM] |
| --- | --- | --- | --- | --- | --- | --- | --- | --- | --- | --- | --- | --- | --- | --- | --- | --- |
| CC(Nc1ccc2c(c1)OCCn1cc(N3C(=O)OCC3C(F)F)nc1-2)C(N)=O (stereo unspecified) | 96.7% [middle of 4 runs] | 90% [middle of 4 runs] | 99.2% [middle of 4 runs] | 82.1% [middle of 4 runs] | 82% [middle of 4 runs] | 58.4% [middle of 4 runs] | > 10000 nM | – | – | – | – | – | – | – | – | – |
| CC1(C)CCC(Nc2ncc(C(F)(F)F)c(-c3c[nH]c4c(P(C)(C)=O)c(C#N)ccc34)n2)CN1 (stereo unspecified) | – | – | – | – | – | – | – | 41.7% [middle of 4 runs] | 38.6% [middle of 4 runs] | 39.7% [middle of 4 runs] | – | – | – | – | – | – |
| CCN1CCN(Cc2ccc(Nc3ncc(F)c(-c4cc(F)c5nc(C)n(C(C)C)c5c4)n3)nc2)CC1 | 90.2% [middle of 4 runs] | 75.6% [middle of 4 runs] | 59.6% [middle of 4 runs] | 45.4% [middle of 4 runs] | – | – | – | – | – | – | 99.7% [middle of 4 runs] | 91.6% [middle of 4 runs] | – | – | – | – |
| CCc1c2c(nc3ccc(O)cc13)-c1cc3c(c(=O)n1C2)COC(=O)[C@]3(O)CC | – | – | – | – | – | – | 2.19 nM [middle of 4 runs] | 7.01% [middle of 4 runs] | 4.37% [middle of 4 runs] | 3.18% [middle of 4 runs] | – | – | 86.9% [middle of 4 runs] | 34.5% [middle of 4 runs] | 14.6% [middle of 4 runs] | – |
| CCn1c(-c2cc(N3CCN(C)CC3)cnc2C(C)OC)c2c3cc(ccc31)-c1csc(n1)CC(NC(=O)C1CC1C)C(=O)N1CCCC(N1)C(=O)OCC(C)(C)C2 (stereo unspecified) | – | – | – | – | – | – | – | 12.7% [middle of 8 runs] | 10.3% [middle of 7 runs] | 8.88% [middle of 8 runs] | – | – | 35.5% [middle of 8 runs] | 22.9% [middle of 8 runs] | 17.3% [middle of 8 runs] | < 0.949 |
| CCn1c(-c2cccnc2C(C)OC)c2c3cc(ccc31)N1CCOC(CC(NC(=O)C(C(C)C)N(C)C(=O)C3(F)CCN(C(=O)C#CC(C)(C)N(C)C)CC3)C(=O)N3CCCC(N3)C(=O)OCC(C)(C)C2)C1 (stereo unspecified) | – | – | – | – | – | – | – | 97.4% [middle of 8 runs] | 98% [middle of 8 runs] | 96.9% [middle of 8 runs] | – | – | 102% [middle of 8 runs] | 103% [middle of 8 runs] | 102% [middle of 8 runs] | > 300 |
| Nc1ccn(C2OC(CO)C(O)C2(F)F)c(=O)n1 (stereo unspecified) | 10.9% [middle of 4 runs] | 10.5% [middle of 4 runs] | 12.1% [middle of 4 runs] | 11.3% [middle of 4 runs] | – | – | 7.13 nM and 6.64 nM and 6.75 nM | – | – | – | 100% [middle of 4 runs] | 29.2% [middle of 4 runs] | – | – | – | – |
| O=C(c1ccc(F)c(F)c1Nc1ccc(I)cc1F)N1CC(O)([C@@H]2CCCCN2)C1 | 54.5% [middle of 4 runs] | 36.6% [middle of 4 runs] | 26.7% [middle of 4 runs] | 11.3% [middle of 4 runs] | – | – | 42.7 nM [middle of 4 runs] | – | – | – | 98.9% [middle of 4 runs] | 69.2% [middle of 4 runs] | – | – | – | – |

Source: PubChem BioAssay AID2060902 (Molecular Pharmacology Branch, DTP, NCI, 2025)
